Each block holds one compound with its values, some of them ahead of it. Residues, ends and D or L forms follow the SMILES beside them. *: point of attachment. For = O=C*
Assays:
[1] = Partition of F-L-Asp between water-immiscible organic solvent and aqueous phase (distribution ratio, eq. 2); format: physicochemical; conditions: for PF-A-Asp / pKa: 40° C
Source text: Moreover, organic solvents of which distribution ratios of F-L-Asp (DF-L-Asp) described by following equation (2) are 10^-4 or less at pH=6.0 are suitable for increase of conversion ratios to F-APM because large amount of F-L-Asp can be distributed in aqueous phase: [formula] wherein
PF-L-Asp =(CF-L-Asp)org /(CF-L-Asp)aq(2a);
KF-L-Asp1 ={(Cf-L-Asp.spsb.-)aq ×CH.spsb.+
KF-l=Asp2 ={(CF-L-Asp.spsb.2-)aq ×CH.spsb.+
}/(CF-L-Asp.spsb.-)aq (2c);
(CF-L-Asp)org : concentration of F-L-Asp contained in the organic phase after the extraction of F-APM;
(CF-L-Asp)aq : concentration of F-L-Asp remained in the aqueous phase after the extraction of F-APM;
(CF-L-Asp.spsb.-)aq : concentration of F-L-Asp^- remained in the aqueous phase after the extraction of F-APM;
CH.spsb.+ : concentration of H^+ remained in the aqueous phase after the extraction of F-APM;
(CF-L-Asp.spsb.2-)aq : concentration of F-L-Asp^2- remained in the aqueous phase after the extraction of F-APM.
PF-L-Asp, KF-L-Asp1 and KF-L-Asp2 were obtained by the partition model of F-L-Asp described by following scheme 2: [drawing 2]
Furthermore, above equation (2) was obtained by following equation (4): [formula]
(§1) 10 ml of organic solvent saturated by water and 10 ml of aqueous solution saturated by organic solvent were entered into sample tube, and 50 mM of F-L-Asp was dissolved in said organic solvent saturated by water and 50 mM of F-APM was dissolved in said aqueous solution saturated by organic solvent.
As a value showing the ability to suppress transfer of F-L-Asp from aqueous phase to organic phase, DF-L-Asp described by equation (2) was used.
(§2) Measurements of these PF-APM and PF-L-Asp were carried out at 40° C.
(§3) DF-APM values of many kinds of organic solvent are shown in Table 1 wherein methyl isobutyl ketone, n-butylformate and butyl acetate are shown as comparative examples, and DF-L-Asp values of many kinds of organic solvent are shown in Table 2.

[2] = relative to cane sugar; cited from earlier work
[3] = Batchwise biphase condensation reaction: F-APM in aqueous and organic phase by HPLC; format: physicochemical; conditions: tributyl phosphoric acid/aqueous enzyme solution pH=6.5, 40° C
Procedure: This example was carried out by batchwise operation in biphase system of aqueous phase and organic phase.
An enzyme aqueous solution of pH=6.5 containing 1.131 g/l of thermoase, 0.1M buffer agent (MES) and 0.01M CaCl2, and substrate tributyl phosphoric acid solution containing 88.15 mM of F-L-Asp and 120.97 mM of L-PM were prepared separately and were maintained at 40° C. Both 5 ml's of two solutions were mixed and the condensation reaction between F-L-Asp and L-PM was started. Concentrations of F-L-Asp, L-PM and F-APM were analyzed by HPLC.

[4] = Partition of F-APM between water-immiscible organic solvent and aqueous phase (distribution ratio, eq. 1); format: physicochemical; conditions: for PF-APM / pKa: 40° C; for pKa: read-out: pKF-APM
Source text: The water-immiscible solvents of which distribution ratios (DF-APM) described by following equation (1) are 10^-2 or more at pH=6.0 are suitable for effective the extraction of the F-APM produced to the organic phase: [formula] wherein
PF-APM =(CF-APM)org /(CF-APM)aq (1a);
KF-APM ={(CF-APM.spsb.-)aq ×CH.spsb.+
(CF-APM)org : concentration of F-APM contained in the organic phase after the extraction of F-APM;
(CF-APM)aq : concentration of F-APM remained in the aqueous phase after the extraction of F-APM;
(CF-APM.spsb.-)aq : concentration of F-APM^- remained in the aqueous phase after the extraction of F-APM;
CH.spsb.+ : concentration of H^+ remained in the aqueous phase after the extraction of F-APM.
Above PF-APM and KF-APM were obtained by following partition model of F-APM described by following scheme 1. [drawing 1]
Furthermore, above equation (1) was obtained by relation described by following equation (3). [formula]
as §1
As a value showing the ability of organic solvent to extract F-APM from aqueous phase, DF-ApM described by equation (1) were used.
as §2, §3

[5] = methyl ethyl ketone/water, pH = 5
[6] = methyl ethyl ketone/water, pH = 6
[7] = methyl ethyl ketone/water, pH = 7
[8] = tri-butylphosphoric acid, n-amylalcohol, t-amylalcohol, 1-butanol, methyl ethyl ketone and isobutanol, pH=6.0
[9] = tri-butylphosphoric acid/water, pH = 5
[10] = tri-butylphosphoric acid/water, pH = 6
[11] = tri-butylphosphoric acid/water, pH = 7
[12] = butylacetate/water (comparative)
[13] = methyl isobutyl ketone/water (comparative)
[14] = n-butylformate/water (comparative)

- PF-A-Asp ([1]; 1-butanol/water): 0.424
- pKa ([1]; 1-butanol/water, read-out: pKF-L-Asp1): 2.99
- pKa ([1]; 1-butanol/water, read-out: pKF-L-Asp2): 4.83
- DF-L-Asp ([1]; 1-butanol/water, pH = 5): 16.6 ×10^-4
- DF-L-Asp ([1]; 1-butanol/water, pH = 6): 0.262 ×10^-4
- DF-L-Asp ([1]; 1-butanol/water, pH = 7): 0.00278 ×10^-4
- PF-A-Asp ([1]; isobutanol/water): 0.356
- pKa ([1]; isobutanol/water, read-out: pKF-L-Asp1): 3.11
- pKa ([1]; isobutanol/water, read-out: pKF-L-Asp2): 4.44
- DF-L-Asp ([1]; isobutanol/water, pH = 5): 9.9 ×10^-4
- DF-L-Asp ([1]; isobutanol/water, pH = 6): 0.123 ×10^-4
- DF-L-Asp ([1]; isobutanol/water, pH = 7): 0.00125 ×10^-4
- PF-A-Asp ([1]; methyl ethyl ketone/water): 0.296
- pKa ([1]; methyl ethyl ketone/water, read-out: pKF-L-Asp1): 3.43
- pKa ([1]; methyl ethyl ketone/water, read-out: pKF-L-Asp2): 4.43
- DF-L-Asp [1, 5]: 16.0 ×10^-4
- DF-L-Asp [1, 6]: 0.201 ×10^-4
- DF-L-Asp [1, 7]: 0.00206 ×10^-4
- PF-A-Asp ([1]; n-amylalcohol/water): 0.166
- pKa ([1]; n-amylalcohol/water, read-out: pKF-L-Asp1): 2.95
- pKa ([1]; n-amylalcohol/water, read-out: pKF-L-Asp2): 4.17
- DF-L-Asp ([1]; n-amylalcohol/water, pH = 5): 1.9 ×10^-4
- DF-L-Asp ([1]; n-amylalcohol/water, pH = 6): 0.0216 ×10^-4
- DF-L-Asp ([1]; n-amylalcohol/water, pH = 7): 0.00021 ×10^-4
- PF-A-Asp ([1]; t-amylalcohol/water): 0.498
- pKa ([1]; t-amylalcohol/water, read-out: pKF-L-Asp1): 3.16
- pKa ([1]; t-amylalcohol/water, read-out: pKF-L-Asp2): 4.63
- DF-L-Asp ([1]; t-amylalcohol/water, pH = 5): 21.4 ×10^-4
- DF-L-Asp ([1]; t-amylalcohol/water, pH = 6): 0.294 ×10^-4
- DF-L-Asp ([1]; t-amylalcohol/water, pH = 7): 0.00305 ×10^-4
- pKa ([1]; tri-butyl phosphoric acid/water, read-out: pKF-L-Asp1): 3.18
- pKa ([1]; tri-butyl phosphoric acid/water, read-out: pKF-L-Asp2): 4.44
- DF-L-Asp values at pH=6.0 [1, 8]: ≤ 1×10^-4
- PF-A-Asp ([1]; tri-butylphosphoric acid/water): 0.558
- DF-L-Asp [1, 9]: 18.2 ×10^-4
- DF-L-Asp [1, 10]: 0.226 ×10^-4
- DF-L-Asp [1, 11]: 0.00231 ×10^-4
SMILES: O=CN[C@@H](CC(=O)O)C(=O)O [F-L-Asp, N-formyl-L-aspartic acid]

SMILES: COC(=O)[C@H](Cc1ccccc1)NC(=O)[C@@H](N)CC(=O)O [aspartame, α-L-Aspartyl-L-phenylalanine methyl ester] (H-Asp-Phe-OMe)
- sweetness of cane sugar [2]: about 200 times

- PF-APM ([4]; 1-butanol/water): 7.13
- pKa ([4]; 1-butanol/water): 4.17
- DF-APM ([4]; 1-butanol/water, pH = 5): 0.919
- DF-APM ([4]; 1-butanol/water, pH = 6): 0.101
- DF-APM ([4]; 1-butanol/water, pH = 7): 0.0105
- PF-APM [4, 12]: 0.47
- pKa [4, 12]: 4.02
- DF-APM ([4]; butylacetate/water (comparative), pH = 5): 0.045
- DF-APM ([4]; butylacetate/water (comparative), pH = 6): 0.0049
- DF-APM ([4]; butylacetate/water (comparative), pH = 7): 0.00049
- PF-APM ([4]; methyl ethyl ketone/water): 2.14
- pKa ([4]; methyl ethyl ketone/water): 4.61
- DF-APM [4, 5]: 0.556
- DF-APM [4, 6]: 0.087
- DF-APM [4, 7]: 0.0087
- PF-APM [4, 13]: 0.80
- pKa [4, 13]: 4.01
- DF-APM ([4]; methyl isobutyl ketone/water (comparative), pH = 5): 0.074
- DF-APM ([4]; methyl isobutyl ketone/water (comparative), pH = 6): 0.0080
- DF-APM ([4]; methyl isobutyl ketone/water (comparative), pH = 7): 0.00082
- PF-APM ([4]; n-amylalcohol/water): 3.70
- pKa ([4]; n-amylalcohol/water): 4.22
- DF-APM ([4]; n-amylalcohol/water, pH = 5): 0.527
- DF-APM ([4]; n-amylalcohol/water, pH = 6): 0.0604
- DF-APM ([4]; n-amylalcohol/water, pH = 7): 0.0061
- PF-APM [4, 14]: 0.64
- pKa [4, 14]: 4.17
- DF-APM ([4]; n-butylformate/water (comparative), pH = 5): 0.083
- DF-APM ([4]; n-butylformate/water (comparative), pH = 6): 0.0091
- DF-APM ([4]; n-butylformate/water (comparative), pH = 7): 0.0012
- PF-APM ([4]; t-amylalcohol/water): 6.89
- pKa ([4]; t-amylalcohol/water): 4.21
- DF-APM ([4]; t-amylalcohol/water, pH = 5): 0.866
- DF-APM ([4]; t-amylalcohol/water, pH = 6): 0.107
- DF-APM ([4]; t-amylalcohol/water, pH = 7): 0.0111
- DF-APM values at pH=6.0 [4, 8]: ≥ 1×10^-2
- PF-APM ([4]; tri-butylphosphoric acid/water): 13.0
- pKa ([4]; tri-butylphosphoric acid/water): 4.01
- DF-APM [4, 9]: 1.20
- DF-APM [4, 10]: 0.13
- DF-APM [4, 11]: 0.0133
SMILES: COC(=O)[C@H](Cc1ccccc1)NC(=O)[C@H](CC(=O)O)NC=O [F-APM, N-formyl-α-L-aspartyl-L-phenylalanine methyl ester] (For-Asp-Phe-OMe)
- transfer of F-APM produced to the organic phase [3]: all F-APM produced were transferred to the organic phase
